The numbers were not newly measured in patent EP4174079B1 (UNIWERSYTET JAGIELLONSKI, priority 2021, dated 2023), which cites them from elsewhere.

SMILES strings stand for the structures.

The conditions of the data set: compared with cisplatin.

Consider `[Cl][Pt][Cl].c1cn[nH]c1.c1cn[nH]c1` [Cis-PtCl2(pzH)2], for which the antitumour activity entry was “significantly lower than cisplatin”.
